Measurements as given in paper doi:10.1101/2022.12.16.520736v1 (biorxiv, 2022).
Read-outs that look alike come from different tables or passages of the source.

System: CK2 activity in cell extracts
Conditions: then lysed

SMILES: CC(C)COC(=O)c1[nH]c2ccc(F)cc2c1-c1cn(CC2CCN(CCNS(=O)(=O)c3ccc(CC(C)C)cc3)CC2)nn1 [AB668]
- IC50 (786-O cells treated with the inhibitor): 340 ± 70 nM
- IC50 (HEK293 cells treated with the inhibitor): 600 ± 110 nM
